± gives the expanded uncertainty stated by the source.
Assay: xn = mol fraction of the nth substance listed
Details: 100 kPa, Liquid; for viscosity: Concentric cylinders viscometry; for mass density: Vibrating tube method

OCCCO [propan-1,3-diol] + CCC(C)=O
Details	mass density, 313.15 K [kg/m3]	mass density, 318.15 K [kg/m3]	mass density, 323.15 K [kg/m3]	mass density, 328.15 K [kg/m3]	mass density, 333.15 K [kg/m3]	viscosity, 313.15 K [mPa·s]	viscosity, 318.15 K [mPa·s]	viscosity, 323.15 K [mPa·s]	viscosity, 328.15 K [mPa·s]	viscosity, 333.15 K [mPa·s]
x1 = 0.1052	808.832 ± 0.21	803.661 ± 0.21	798.453 ± 0.21	793.206 ± 0.21	787.917 ± 0.21	0.4382 ± 0.0066	0.4141 ± 0.0064	0.3908 ± 0.0062	0.3682 ± 0.0059	0.3461 ± 0.0058
x1 = 0.2004	831.418 ± 0.21	826.427 ± 0.21	821.409 ± 0.21	816.363 ± 0.21	811.298 ± 0.21	0.5847 ± 0.008	0.548 ± 0.0076	0.5165 ± 0.0073	0.484 ± 0.007	0.4456 ± 0.0066
x1 = 0.3002	855.978 ± 0.2	851.191 ± 0.2	846.386 ± 0.2	841.54 ± 0.2	836.659 ± 0.21	0.8163 ± 0.01	0.7557 ± 0.0097	0.7008 ± 0.0091	0.6507 ± 0.0086	0.6058 ± 0.0082
x1 = 0.4003	881.838 ± 0.2	877.271 ± 0.2	872.674 ± 0.2	868.041 ± 0.2	863.375 ± 0.2	1.237 ± 0.015	1.127 ± 0.013	1.03 ± 0.013	0.9438 ± 0.012	0.8671 ± 0.011
x1 = 0.4999	908.015 ± 0.2	903.664 ± 0.2	899.282 ± 0.2	894.87 ± 0.2	890.43 ± 0.2	1.909 ± 0.022	1.711 ± 0.02	1.542 ± 0.018	1.393 ± 0.016	1.271 ± 0.015
x1 = 0.5992	934.073 ± 0.19	929.93 ± 0.19	925.759 ± 0.19	921.56 ± 0.19	917.332 ± 0.2	3.025 ± 0.034	2.671 ± 0.03	2.372 ± 0.027	2.121 ± 0.024	1.911 ± 0.022
x1 = 0.6992	960.613 ± 0.19	956.69 ± 0.19	952.744 ± 0.19	948.774 ± 0.19	944.777 ± 0.19	4.879 ± 0.053	4.237 ± 0.047	3.702 ± 0.041	3.257 ± 0.036	2.894 ± 0.032
x1 = 0.7989	985.317 ± 0.18	981.556 ± 0.19	977.808 ± 0.19	974.119 ± 0.19	970.698 ± 0.19	8.064 ± 0.088	6.885 ± 0.075	5.939 ± 0.065	5.165 ± 0.056	4.581 ± 0.05
x1 = 0.8998	1011.06 ± 0.19	1007.51 ± 0.19	1004.01 ± 0.19	1000.59 ± 0.18	997.503 ± 0.18	13.49 ± 0.15	11.33 ± 0.12	9.603 ± 0.1	8.217 ± 0.089	7.128 ± 0.077
x1 = 1	1040.35 ± 0.18	1037.18 ± 0.18	1033.98 ± 0.18	1030.77 ± 0.18	1027.53 ± 0.18	22.22 ± 0.24	18.35 ± 0.2	15.29 ± 0.17	12.84 ± 0.14	10.96 ± 0.12
